Measurements from patent US6479657B1, “Crystalline 1-kestose and process for preparing the same” (Meiji Seika Kaisha, Ltd., priority 1995, dated 2002).

Key:
[1] = tested on: enzyme having fructose transferase activity derived from a Scopulariopsis microorganism; test: Properties of the novel Scopulariopsis enzyme: substrate specificity, inhibition, kinetics; format: biochemical, Scopulariopsis brevicaulis
Protocol: In the case of an enzyme derived from a Scopulariopsis microorganism, the quantity of enzyme which can produce 1 μmol of 1-kestose in 1 minute at 40° C., pH 7.0, and a substrate (sucrose) concentration of 10 wt %.
The enzyme is prepared from a Scopulariopsis microorganism, preferably from Scopulariopsis brevicaulis, specifically Scopulariopsis brevicaulis IF04843 strain.
The enzyme can be recovered from a culture by incubating the microorganism in a suitable medium (e.g., a medium containing 3.0 to 10.0% of sucrose, 5 to 15% of corn steep liquor, 0.05 to 0.3% of urea, 0.2 to 3.0 of potassium dihydrogenphosphate, and 0.01 to 0.1% of magnesium sulfate heptahydrate), at initial pH of 6.5 to 7.5 and a temperature of 20 to 30° C. for 3 to 8 days. The enzyme is prepared preferably by recovering the fungus body from the culture using a centrifuge such as a basket type; suspending the recovered fungus body in a buffer at pH 7.0; obtaining a crude enzyme suspension by an ultrasonic treatment and a membrane treatment; then treating with anion exchange, gel filtration, chromatographic focusing, or other procedure on the crude enzyme suspension.
The freeze-dried fungus body powder prepared above was suspended in a McIlvaine buffer (pH 7.0), and ultrasonically crushed. The crushed cells were ultrafiltrated through a membrane filter (cutoff molecular weight: 100,000).

[2] = tested on: enzyme having fructose transferase activity derived from a Penicillium microorganism; test: Properties of the novel Penicillium enzyme: substrate specificity, inhibition, kinetics; format: biochemical, Penicillium roqueforti
Protocol: In the case of an enzyme derived from a Penicillium microorganism, the quantity of enzyme which can produce 1 μmol of 1-kestose in 1 minute at 50° C., pH 7.0, and a substrate (sucrose) concentration of 10 wt %; and The enzyme is prepared from a Penicillium microorganism, preferably from Penicillium roqueforti, specifically Penicillium roqueforti IAM7254 strain. The enzyme can be recovered from a culture by incubating the microorganism in a suitable medium (e.g., a medium containing 5 to 30% of sucrose, 1 to 10% of corn steep liquor, 0.05 to 0.3% of urea, 0.2 to 3.0 of potassium dihydrogenphosphate, and 0.01 to 0.1% of magnesium sulfate heptahydrate), at initial pH of 6.5 to 7.5 and a temperature of 25 to 30° C. for 2 to 5 days.

[3] = Decomposition of 1-kestose in the decolorizing and desalting procedure; format: physicochemical; settings: activated carbon at 60° C. for 20 minutes, cation and anion exchange resin
Protocol: (§1) The deactivated solution was filtered to remove any impurities such as the fungus body and the activated carbon. Then, activated carbon (Taiko activated carbon S-W50) was added to the filtrate at a rate of 0.5% of the solids content, and stirred at a temperature of 60° C. for 20 minutes to decolorize again. After filtrating to remove the activated carbon in the same manner as above, the solution was desalted through cation and anion exchange resin, then filtrated again to make a colorless and transparent 1-kestose solution (chromatographic sample).
as §1, with “per” for “of the”
The deactivated solution was filtered to remove any impurities such as the fungus body and the activated carbon. […]

Compound	Substrate specificity (enzyme acts on sugar) [1]	Substrate specificity (enzyme acts on sugar) [2]	decomposition of 1-kestose [3]
OC[C@H]1O[C@@](CO)(OC[C@@]2(O[C@H]3O[C@H](CO)[C@@H](O)[C@H](O)[C@H]3O)O[C@H](CO)[C@@H](O)[C@@H]2O)[C@@H](O)[C@@H]1O [Example 1-kestose, 1-kestose]	effectively acts on	effectively acts on	hardly observed
OC[C@H]1O[C@H](O[C@H]2[C@H](O)[C@@H](O)C(O)O[C@@H]2CO)[C@H](O)[C@@H](O)[C@@H]1O (mixture of isomers) [maltose]	not on	not on	–

Further lines, results first:

Substrate specificity (enzyme acts on sugar) [1]	Substrate specificity (enzyme acts on sugar) [2]	decomposition of 1-kestose [3]	Compound
effectively acts on	effectively acts on	–	OC[C@H]1O[C@@](CO)(O[C@H]2O[C@H](CO)[C@@H](O)[C@H](O)[C@H]2O)[C@@H](O)[C@@H]1O [sucrose]
effectively acts on	effectively acts on	–	OC[C@H]1O[C@H](OC[C@H]2O[C@H](O[C@]3(CO)O[C@H](CO)[C@@H](O)[C@@H]3O)[C@H](O)[C@@H](O)[C@@H]2O)[C@H](O)[C@@H](O)[C@H]1O [raffinose]
not on	not on	–	O=C(CO)[C@@H](O[C@H]1O[C@H](CO)[C@@H](O)[C@H](O)[C@H]1O)[C@H](O)[C@H](O)CO [turanose]
